From the supplement of paper PMC10307832

Key:
Test in all cases: relative viability (nuclei count vs DMSO), 5 days (fraction); higher = more cells survive
[1] = tested on: NCI-H1703
Method in brief: (§1)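 Nuclei were stained with Hoechst during a one-step fixation (final 0.05% Triton X-100, 1% formaldehyde, 1 ug/ml Hoechst) carried out 5 days after dosing, then counted on 4× images. The cells, lung cancer lines in 1536-well plates, had been dosed by pin tool the day after seeding with one drug alone or a fixed anchor-drug dose plus five library-drug doses (not always all listed) in √10 steps. Relative viability is the nuclei count in treated wells divided by that in vehicle wells, and each value is the median of duplicate plates.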

[2] = tested on: NCI-H2342
Method in brief: as §1

[3] = tested on: NCI-H1648
Method in brief: as §1

[4] = tested on: NCI-H522
Method in brief: as §1

[5] = tested on: SW 900
Method in brief: as §1

[6] = tested on: NCI-H1563
Method in brief: as §1

[7] = tested on: A549
Method in brief: as §1

[8] = tested on: IA-LM
Method in brief: as §1

Structure (SMILES)	relative viability ([1]; first compound 0.08 µM)	relative viability ([1]; first compound 0.253 µM)	relative viability ([1]; first compound 0.8 µM)	relative viability ([1]; first compound 2.53 µM)	relative viability ([1]; first compound 8 µM)	relative viability ([2]; first compound 0.08 µM)	relative viability ([2]; first compound 0.253 µM)	relative viability ([2]; first compound 0.8 µM)	relative viability ([2]; first compound 2.53 µM)	relative viability ([2]; first compound 8 µM)	relative viability ([3]; first compound 0.08 µM)	relative viability ([3]; first compound 0.8 µM)	relative viability ([3]; first compound 2.53 µM)	relative viability ([3]; first compound 8 µM)	relative viability ([4]; first compound 0.08 µM)	relative viability ([4]; first compound 0.253 µM)	relative viability ([4]; first compound 0.8 µM)	relative viability ([4]; first compound 2.53 µM)	relative viability ([4]; first compound 8 µM)	relative viability ([5]; first compound 0.08 µM)	relative viability ([5]; first compound 0.253 µM)	relative viability ([5]; first compound 2.53 µM)	relative viability ([5]; first compound 8 µM)	relative viability ([6]; first compound 0.08 µM)	relative viability ([6]; first compound 0.253 µM)	relative viability ([6]; first compound 0.8 µM)	relative viability ([6]; first compound 2.53 µM)	relative viability ([6]; first compound 8 µM)	relative viability ([7]; first compound 0.08 µM)	relative viability ([7]; first compound 0.253 µM)	relative viability ([7]; first compound 0.8 µM)	relative viability ([7]; first compound 2.53 µM)	relative viability ([7]; first compound 8 µM)	relative viability ([8]; first compound 0.08 µM)	relative viability ([8]; first compound 0.253 µM)	relative viability ([8]; first compound 2.53 µM)	relative viability ([8]; first compound 8 µM)
O=c1[nH]c2ccccc2n1C1CCN(CCCC(c2ccc(F)cc2)c2ccc(F)cc2)CC1 [Pimozide] + NC(=O)Nc1cc(-c2cccc(F)c2)sc1C(=O)N[C@H]1CCCNC1 [AZD7762] (partner 0.2 µM)	0.129	0.109	0.0889	0.1	0.122	0.524	0.526	0.465	0.48	0.492	0.568	0.52	0.584	0.698	0.963	0.835	0.857	0.77	0.872	0.524	0.599	0.591	0.478	–	–	–	–	–	–	–	–	–	–	–	–	–	–
O=c1[nH]c2ccccc2n1C1CCN(CCCC(c2ccc(F)cc2)c2ccc(F)cc2)CC1 [Pimozide] + Nc1nc2[nH]cc(CCc3ccc(C(=O)N[C@@H](CCC(=O)O)C(=O)O)cc3)c2c(=O)[nH]1 [Pemetrexed] (partner 0.2 µM)	–	–	–	–	–	0.796	0.757	0.634	0.749	0.752	0.818	0.573	0.673	0.612	1.04	0.848	0.832	0.818	0.904	0.483	0.465	0.447	0.418	0.606	0.849	0.745	0.781	0.734	–	–	–	–	–	–	–	–	–
O=c1[nH]c2ccccc2n1C1CCN(CCCC(c2ccc(F)cc2)c2ccc(F)cc2)CC1 [Pimozide] + Nc1ncn([C@H]2C[C@H](O)[C@@H](CO)O2)c(=O)n1 [Decitabine] (partner 2 µM)	–	–	–	–	–	0.698	0.74	0.715	0.746	0.725	0.392	0.466	0.55	0.517	0.679	0.693	0.615	0.698	0.771	0.451	0.415	0.548	0.472	–	–	–	–	–	0.307	0.208	0.211	0.312	0.199	–	–	–	–
O=c1[nH]c2ccccc2n1C1CCN(CCCC(c2ccc(F)cc2)c2ccc(F)cc2)CC1 [Pimozide] + O=C(CCCCCCC(=O)Nc1ccccc1)NO [Vorinostat] (partner 1 µM)	–	–	–	–	–	0.778	0.77	0.658	0.75	0.696	0.315	0.527	0.228	0.347	0.848	0.908	0.673	0.817	0.81	0.655	0.45	0.509	0.3	–	–	–	–	–	–	–	–	–	–	0.931	0.923	0.913	0.99
